Measured values: patent publication US8877715B2, “Cytotoxic conjugates having neuropeptide Y receptor binding compound” (priority 2009, dated 2014)

Test system: Human MCF-7 breast carcinoma cells
Experiment: In vivo growth assay, MCF-7 xenograft (Study A and Study B)
Design: species or system nude mice
Settings: Study A
Description: Once-weekly treatments were administered for three weeks by tail vein injection except in cases where poor drug solubility or tail necrosis necessitated intraperitoneal injections. […] Example 93 was evaluated in Study B at 55.45 mg/kg, 110.9 mg/kg and 221.8 mg/kg. Antitumor activity was assessed by tumor growth delay (“TGD”) defined as the difference in median time to endpoint tumor size in a treatment group compared to the control group, and by tumor growth inhibition (“TGI”) defined as the difference between median tumor volumes of the treatment and control groups on a study day providing a balance between measurable group responses and large group sizes. Toxicity was evaluated by body weight measurements and clinical observations.
Female nude mice (nu/nu, Harlan) were 10-11 weeks old and had body weight ranges of
The animals were fed ad libitum water (reverse osmosis, 1 ppm Cl) and NIH 31 Modified and Irradiated Lab Diet® consisting of 18.0% crude protein, 5.0% crude fat, and 5.0% crude fiber. The mice were housed on irradiated ALPHA-Dri® Bed-o′ Cobs® Laboratory Animal Bedding in static microisolators on a 12-hour light cycle at 21-22° C.
Human MCF-7 breast carcinoma cells were maintained in RPMI 1640 medium containing 100 units/mL penicillin G sodium, 100 μg/mL streptomycin sulfate, and 25 μg/mL gentamicin. The medium was supplemented with 10% heat-inactivated fetal bovine serum and 2 mM glutamine. Additional buffering was provided with 10 mM HEPES and 0.075% sodium bicarbonate. The tumor cells were cultured in tissue culture flasks in a humidified incubator at 37° C. in an atmosphere of 95% air and 5% CO2.
Three to seven days prior to cell injection, a pellet containing 17-β-estradiol (0.36 mg, 60-day release, Innovative Research of America) was implanted subcutaneously between the scapulae of each mouse.
The MCF-7 tumor cells used for implantation were harvested during log phase growth and resuspended in phosphate-buffered saline at 5×10^7 cells/mL. […] Tumors were monitored twice weekly and then daily as their volumes approached 80-120 mm^3. […] Thus, a separate study (“Study B”) was set up comprising six groups (n=10) of animals. In this study, 17 days elapsed between cell implantation and group assignment. […] Tumor size, in mm^3, was calculated from:
[formula] where w=width and l=length in mm of the MCF-7 tumor. Tumor weight may be estimated with the assumption that 1 mg is equivalent to 1 mm^3 of tumor volume.
Example 93 dosing solutions were prepared fresh in 0.1N acetic acid for each day of treatment.
Camptothecin (Lot No. 034K3648, Sigma) stock solutions were made from 60% DMA and 40% Tween 80 and stored at room temperature during the study. Dosing solutions were prepared fresh on each day of dosing by diluting the stocks 1:20 in saline.
The treatment plans are summarized in Table 3A for Study A and Table 3B for Study B.
All treatments and vehicles were given once-weekly for three doses (“qwk×3”). Group 1 mice received no gavage and no injections, and served as a control for tumor progression and estrogen toxicity. Group 2 animals received vehicle.
Each treatment dose was administered in a volume of 0.2 mL per 20 g of body weight, and was scaled to the body weight of the animal.
Median tumor growth curves of FIGS. 1-3 show median tumor volumes as a function of time. When an animal exited the study due to tumor size, the final tumor volume recorded for the animal was included with the data used to calculate the group median tumor volume at subsequent time points. Curves were truncated after 50% of animals in a group had exited the study.

**Q.** How did the “tumor growth inhibition (TGI)” value (Day 18) turn out when “[camptothecin-rvD-Asp-Suc-Tyr^1, Nle^17, 4Hyp^34]hNPY(1-36)-NH2 [Example 92]” was run?
**A.** dose-related, significantly so at 110.6 and 221.2 mg/kg, and of potential therapeutic value at the higher dose level

**Q.** And the mean tumor volume (G 7: 55.3 mg/kg qwk x 3, D 1)?
**A.** 124.1 mm^3

**Q.** What about the mean tumor volume (G 7: 55.3 mg/kg qwk x 3, D 4) of the same substance?
**A.** 112.3 mm^3

**Q.** And the mean tumor volume (G 7: 55.3 mg/kg qwk x 3, D 7)?
**A.** 139.2 mm^3

**Q.** What about the mean tumor volume (G 7: 55.3 mg/kg qwk x 3, D 11) of the same substance?
**A.** 168.4 mm^3

**Q.** And the mean tumor volume (G 7: 55.3 mg/kg qwk x 3, D 14)?
**A.** 250.9 mm^3

**Q.** And the mean tumor volume (G 7: 55.3 mg/kg qwk x 3, D 18)?
**A.** 242.9 mm^3

**Q.** And the mean tumor volume (G 7: 55.3 mg/kg qwk x 3, D 21)?
**A.** 262.5 mm^3

**Q.** What about the mean tumor volume (G 7: 55.3 mg/kg qwk x 3, D 25) of the same substance?
**A.** 385.9 mm^3

**Q.** What about the mean tumor volume (G 7: 55.3 mg/kg qwk x 3, D 28) of the same substance?
**A.** 505.1 mm^3

**Q.** And the mean tumor volume (G 7: 55.3 mg/kg qwk x 3, D 32)?
**A.** 532.2 mm^3

**Q.** What about the mean tumor volume (G 7: 55.3 mg/kg qwk x 3, D 35) of the same substance?
**A.** 631 mm^3

**Q.** And the mean tumor volume (G 7: 55.3 mg/kg qwk x 3, D 39)?
**A.** 978 mm^3

**Q.** What about the mean tumor volume (G 8: 110.6 mg/kg qwk x 3, D 1) of the same substance?
**A.** 124.1 mm^3

**Q.** And the mean tumor volume (G 8: 110.6 mg/kg qwk x 3, D 4)?
**A.** 130.8 mm^3

**Q.** What about the mean tumor volume (G 8: 110.6 mg/kg qwk x 3, D 7) of the same substance?
**A.** 127.5 mm^3

**Q.** And the mean tumor volume (G 8: 110.6 mg/kg qwk x 3, D 11)?
**A.** 146 mm^3

**Q.** What about the mean tumor volume (G 8: 110.6 mg/kg qwk x 3, D 14) of the same substance?
**A.** 184.6 mm^3

**Q.** And the mean tumor volume (G 8: 110.6 mg/kg qwk x 3, D 18)?
**A.** 187.9 mm^3

**Q.** And the mean tumor volume (G 8: 110.6 mg/kg qwk x 3, D 21)?
**A.** 216.2 mm^3

**Q.** What about the mean tumor volume (G 8: 110.6 mg/kg qwk x 3, D 25) of the same substance?
**A.** 337.3 mm^3

**Q.** What about the mean tumor volume (G 8: 110.6 mg/kg qwk x 3, D 28) of the same substance?
**A.** 439.6 mm^3

**Q.** What about the mean tumor volume (G 8: 110.6 mg/kg qwk x 3, D 32) of the same substance?
**A.** 454.8 mm^3

**Q.** And the mean tumor volume (G 8: 110.6 mg/kg qwk x 3, D 35)?
**A.** 550.5 mm^3

**Q.** What about the mean tumor volume (G 8: 110.6 mg/kg qwk x 3, D 39) of the same substance?
**A.** 938 mm^3

**Q.** What about the mean tumor volume (G 9: 221.2 mg/kg qwk x 3, D 1) of the same substance?
**A.** 124.1 mm^3

**Q.** What about the mean tumor volume (G 9: 221.2 mg/kg qwk x 3, D 4) of the same substance?
**A.** 118.3 mm^3

**Q.** And the mean tumor volume (G 9: 221.2 mg/kg qwk x 3, D 7)?
**A.** 118.9 mm^3

**Q.** And the mean tumor volume (G 9: 221.2 mg/kg qwk x 3, D 11)?
**A.** 118.8 mm^3

**Q.** What about the mean tumor volume (G 9: 221.2 mg/kg qwk x 3, D 14) of the same substance?
**A.** 109.4 mm^3

**Q.** What about the mean tumor volume (G 9: 221.2 mg/kg qwk x 3, D 18) of the same substance?
**A.** 129.5 mm^3

**Q.** What about the mean tumor volume (G 9: 221.2 mg/kg qwk x 3, D 21) of the same substance?
**A.** 150.1 mm^3

**Q.** What about the mean tumor volume (G 9: 221.2 mg/kg qwk x 3, D 25) of the same substance?
**A.** 172.2 mm^3

**Q.** What about the mean tumor volume (G 9: 221.2 mg/kg qwk x 3, D 28) of the same substance?
**A.** 197.7 mm^3

**Q.** And the mean tumor volume (G 9: 221.2 mg/kg qwk x 3, D 32)?
**A.** 213.8 mm^3

**Q.** What about the mean tumor volume (G 9: 221.2 mg/kg qwk x 3, D 35) of the same substance?
**A.** 301.7 mm^3

**Q.** And the mean tumor volume (G 9: 221.2 mg/kg qwk x 3, D 39)?
**A.** 372 mm^3

**Q.** What about the tumor regressions (highest dose level (222.6 or 221.2 mg/kg), TGD-evaluated sample) of the same substance?
**A.** 3/5

**Q.** And the “tumor growth delay (TGD)” value (three dose levels, qwk x 3)?
**A.** dose-related TGD, reaching statistical significance
